In paper PMC4019984, “Kinase and channel activity of TRPM6 are co-ordinated by a dimerization motif and pocket interaction” (Biochemical Journal, 2014):

Key:
[1] = test system: GST-tagged TRPM6-(1730–end) A1836N; test: Peptide pull-down, A1836N mutant; type: binding, human; details: HEK-293 lysate, 3 μg peptide, 4°C, anti-GST immunoblot
Method: (§1) The peptides biotin-C6-[…]-TIPFTPVQLFAGEEITV (wild-type) and biotin-C6-LKSPQE-[…] (mutant) were purchased from GL Biochem. For a peptide pull-down, 1–5 mg of lysate was incubated with 3 μg of the respective peptide for 10 min at 4°C under gentle agitation, followed by 5 min of incubation with 10–20 μl of streptavidin beads at 4°C. The immunoprecipitates were washed three times with lysis buffer containing 0.15 M NaCl and then twice with buffer A. Proteins were eluted by resuspending washed immunoprecipitates in 30 μl of SDS sample buffer. […]
(§2) Figure 3 Analysis of the dimerization pocket residues (A) Structural model of TRPM6 based on TRPM7 α-kinase depicting the binding of Leu^1718 and Leu^1721 to other residues in the α-kinase domain. […] The samples were analysed by immunoblotting with anti-GST antibody (top panel). […] (C) Fluorescence polarization analysis of the dimerization motif peptide with E. coli purified GST-tagged TRPM6-(1730–end) and indicated mutants. […] Proteins were separated by SDS/PAGE, stained with Coomassie Blue (top and middle panels) and MBP phosphorylation was detected by autoradiography (bottom panel). […] Proteins were separated by SDS/PAGE, stained with Coomassie Blue (top and middle gels) and MBP phosphorylation was detected by autoradiography (bottom gel). […]

[2] = biological target: T1, GST-tagged TRPM6-(1730–end) (Homo sapiens, UniProt Q9BX84); test: Peptide pull-down, TRPM6-(1730–end); type: binding; details: HEK-293 lysate 1–5 mg, 3 μg biotinylated peptide, 10 min at 4°C, streptavidin beads; anti-GST immunoblot
T1 construct: E. coli-purified GST-tagged TRPM6-(1730–end); made in house; host or cells: E. coli BL21
T1 sequence (Q9BX84 1730-2022 limits assumed): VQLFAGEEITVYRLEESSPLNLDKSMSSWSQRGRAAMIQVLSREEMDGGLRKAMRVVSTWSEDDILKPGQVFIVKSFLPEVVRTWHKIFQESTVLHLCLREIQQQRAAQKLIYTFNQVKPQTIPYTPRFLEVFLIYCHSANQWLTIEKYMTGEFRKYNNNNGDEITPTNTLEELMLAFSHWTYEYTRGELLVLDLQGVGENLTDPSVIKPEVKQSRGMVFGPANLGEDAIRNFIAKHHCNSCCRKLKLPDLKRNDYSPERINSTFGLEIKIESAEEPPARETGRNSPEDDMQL
Method: (§3) The peptides biotin-C6-[…]-TIPFTPVQLFAGEEITV (wild-type) and biotin-C6-LKSPQE-[…] (mutant) were purchased from GL Biochem. For a peptide pull-down, 1–5 mg of lysate was incubated with 3 μg of the respective peptide for 10 min at 4°C under gentle agitation, followed by 5 min of incubation with 10–20 μl of streptavidin beads at 4°C. The immunoprecipitates were washed three times with lysis buffer containing 0.15 M NaCl and then twice with buffer A. Proteins were eluted by resuspending washed immunoprecipitates in 30 μl of SDS sample buffer.
(Figure 2A). We next utilized fluorescence polarization technology, a sensitive method to evaluate interactions between proteins and peptides. Using this methodology, we first evaluated how polarization of a fluorescently labelled peptide encompassing the dimerization motif was affected by titration of TRPM6-(1730–end) (which lacks the dimerization motif). […]
Figure 2 Identification of dimerization motif residues in TRPM6 (A) Structural model of TRPM7 α-kinase depicting the N-terminal non-catalytic α-helix of one monomer that interacts with the kinase segment of the other monomer. (B) Fluorescence polarization analysis of wild-type (WT) and mutant (Mut) dimerization motif peptides with E. coli-purified GST-tagged TRPM6-(1730–end). […] The samples were analysed by immunoblotting with anti-GST antibody (top panel). […]

[3] = test system: full-length FLAG-tagged wild-type TRPM6; test: Peptide pull-down, full-length wild-type TRPM6; type: binding, human; details: full-length wild-type TRPM6, HEK-293 lysate, 3 μg peptide, 4°C; anti-FLAG immunoblot
Method: as §3
(§4) Figure 2 Identification of dimerization motif residues in TRPM6 (A) Structural model of TRPM7 α-kinase depicting the N-terminal non-catalytic α-helix of one monomer that interacts with the kinase segment of the other monomer. (B) Fluorescence polarization analysis of wild-type (WT) and mutant (Mut) dimerization motif peptides with E. coli-purified GST-tagged TRPM6-(1730–end). […] The samples were analysed by immunoblotting with anti-GST antibody (top panel). […] Proteins were separated by SDS/PAGE, stained with Coomassie Blue (top and middle gels) and MBP phosphorylation was detected by autoradiography (bottom gel). […] Proteins were separated by SDS/PAGE, stained with Coomassie Blue (top and middle gels) and MBP phosphorylation was detected by autoradiography (bottom gel). […] The pull-down samples were analysed by immunoblotting with anti-FLAG antibody (top panel). […]

[4] = test system: full-length TRPM6 L1718A+L1721A; test: Peptide pull-down, full-length TRPM6 L1718A+L1721A; type: binding, human; details: full-length L1718A+L1721A TRPM6, HEK-293 lysate, 3 μg peptide, 4°C; anti-FLAG immunoblot
Method: as §3, §4

[5] = test system: GST-tagged TRPM6-(1730–end) L1840A; test: Peptide pull-down, L1840A mutant; type: binding, human; details: HEK-293 lysate, 3 μg peptide, 4°C, anti-GST immunoblot
Method: as §1, §2

In the case of “biotin-C6-LKSPQEPHHHYSAIERNNLMRLSQ-TIPFTPVQLFAGEEITV [biotinylated dimerization motif peptide, biotin-C6 wild-type dimerization motif peptide; conjugated to streptavidin–Sepharose]”, the “binding to biotinylated dimerization motif peptide (pull-down)” value [1] is reported as “abolished binding to the peptide”, the “affinity purification of TRPM6-(1730–end) (pull-down)” value [2] is reported as “could efficiently purify TRPM6-(1730–end)” and the “interaction with biotinylated dimerization motif peptide (pull-down)” value [3] is reported as “do not interact”. The “interaction with biotinylated dimerization motif peptide (pull-down)” value [4] was “rendered capable of interacting” and the “binding to biotinylated dimerization motif peptide (pull-down)” value [5] was “abolished binding to the peptide”.
